According to the kinase profiling compilation of Christmann-Franck et al. (2016):

What was measured:
Test in all cases: radiometric filter-binding kinase assay
SRC (human) = SRC (human) (UniProt P12931)
CSNK1D (human) = CSNK1D (human) (UniProt P48730)
SYK (human) = SYK (human) (UniProt P43405)
IKBKB (human) = IKBKB (human) (UniProt O14920)
RPS6KA3 KD1 KD2 (human) = RPS6KA3 KD1 KD2 (human) (UniProt P51812)
[1] = test system: AKT2 (human), P31751 [S474D]
RPS6KA5 KD1 KD2 (human) = RPS6KA5 KD1 KD2 (human) (UniProt O75582)
RPS6KA1 KD1 KD2 (human) = RPS6KA1 KD1 KD2 (human) (UniProt Q15418)
NEK2 (human) = NEK2 (human) (UniProt P51955)
PRKAA1 or PRKAA2 (rat) = conditions: accession and sequence are those of the human protein
CHEK2 (human) = CHEK2 (human) (UniProt O96017)
CDK2 CCNA2 (human) = CDK2 CCNA2 (human) (UniProt P20248+P24941)
MAPK14 (human) = MAPK14 (human) (UniProt Q16539)
PIM2 (human) = PIM2 (human) (UniProt Q9P1W9)
PLK1 (human) = PLK1 (human) (UniProt P53350)
PAK7 (human) = PAK7 (human) (UniProt Q9P286)
FLT1 (human) = FLT1 (human) (UniProt P17948)
MKNK2 (human) = MKNK2 (human) (UniProt Q9HBH9)
IKBKE (human) = IKBKE (human) (UniProt Q14164)
NEK6 (human) = NEK6 (human) (UniProt Q9HC98)
MAPK1 (human) = MAPK1 (human) (UniProt P28482)
INSRR (human) = INSRR (human) (UniProt P14616)
MAPK3 (human) = MAPK3 (human) (UniProt P27361)
MAP2K1 (human) = MAP2K1 (human) (UniProt Q02750)
BTK (human) = BTK (human) (UniProt Q06187)
PRKACA (human) = PRKACA (human) (UniProt P17612)
MAPK15 (human) = MAPK15 (human) (UniProt Q8TD08)
[2] = test system: RPS6KB1 (human), P23443 [T412E]
CSK (human) = CSK (human) (UniProt P41240)

Sequence of IKBKE (human) (Q14164 whole entry, looked up): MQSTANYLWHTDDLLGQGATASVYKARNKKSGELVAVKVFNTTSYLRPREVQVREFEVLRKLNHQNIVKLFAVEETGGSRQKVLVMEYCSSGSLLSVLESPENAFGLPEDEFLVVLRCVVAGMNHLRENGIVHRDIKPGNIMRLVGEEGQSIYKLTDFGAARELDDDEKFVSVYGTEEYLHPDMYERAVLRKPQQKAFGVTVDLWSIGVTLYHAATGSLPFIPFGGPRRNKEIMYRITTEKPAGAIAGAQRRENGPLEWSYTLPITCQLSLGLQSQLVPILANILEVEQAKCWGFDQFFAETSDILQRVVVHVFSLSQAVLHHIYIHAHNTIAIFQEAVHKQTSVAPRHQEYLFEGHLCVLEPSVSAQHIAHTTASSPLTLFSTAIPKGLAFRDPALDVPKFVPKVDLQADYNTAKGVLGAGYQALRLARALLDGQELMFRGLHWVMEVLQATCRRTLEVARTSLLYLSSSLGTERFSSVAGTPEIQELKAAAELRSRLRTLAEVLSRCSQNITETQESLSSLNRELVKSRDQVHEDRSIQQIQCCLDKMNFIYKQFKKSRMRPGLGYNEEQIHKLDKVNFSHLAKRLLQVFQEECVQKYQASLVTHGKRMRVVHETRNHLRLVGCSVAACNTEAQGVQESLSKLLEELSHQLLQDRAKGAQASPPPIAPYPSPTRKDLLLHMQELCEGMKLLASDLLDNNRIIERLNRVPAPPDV
Sequence of MAPK14 (human) (Q16539 whole entry, looked up): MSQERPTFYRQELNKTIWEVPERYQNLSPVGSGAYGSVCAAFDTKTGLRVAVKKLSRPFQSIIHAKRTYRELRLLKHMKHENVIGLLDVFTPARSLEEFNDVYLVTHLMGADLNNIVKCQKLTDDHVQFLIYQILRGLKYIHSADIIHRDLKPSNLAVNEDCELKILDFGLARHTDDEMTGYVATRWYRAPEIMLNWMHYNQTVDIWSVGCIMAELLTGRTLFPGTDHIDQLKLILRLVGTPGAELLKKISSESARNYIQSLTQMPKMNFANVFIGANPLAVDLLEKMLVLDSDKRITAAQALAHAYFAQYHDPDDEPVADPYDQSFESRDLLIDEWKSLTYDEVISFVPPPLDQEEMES
Sequence of BTK (human) (Q06187 whole entry, looked up): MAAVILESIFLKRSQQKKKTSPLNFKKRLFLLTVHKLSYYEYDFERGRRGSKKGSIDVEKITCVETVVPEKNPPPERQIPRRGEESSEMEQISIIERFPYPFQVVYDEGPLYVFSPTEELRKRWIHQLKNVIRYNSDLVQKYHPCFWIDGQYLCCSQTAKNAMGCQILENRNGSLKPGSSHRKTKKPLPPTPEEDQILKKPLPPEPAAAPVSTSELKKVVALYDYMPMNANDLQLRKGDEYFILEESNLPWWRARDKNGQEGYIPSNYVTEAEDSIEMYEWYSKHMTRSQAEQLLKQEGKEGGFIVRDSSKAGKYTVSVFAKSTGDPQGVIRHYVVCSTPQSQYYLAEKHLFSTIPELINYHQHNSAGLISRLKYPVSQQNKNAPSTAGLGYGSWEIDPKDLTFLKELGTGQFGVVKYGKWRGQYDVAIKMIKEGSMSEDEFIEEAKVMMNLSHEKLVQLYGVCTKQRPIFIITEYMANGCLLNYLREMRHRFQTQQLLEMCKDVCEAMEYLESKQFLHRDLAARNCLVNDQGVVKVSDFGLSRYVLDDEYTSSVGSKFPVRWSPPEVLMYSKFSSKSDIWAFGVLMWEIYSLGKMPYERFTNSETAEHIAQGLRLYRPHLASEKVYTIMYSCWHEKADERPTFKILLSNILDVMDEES
Sequence of PLK1 (human) (P53350 whole entry, looked up): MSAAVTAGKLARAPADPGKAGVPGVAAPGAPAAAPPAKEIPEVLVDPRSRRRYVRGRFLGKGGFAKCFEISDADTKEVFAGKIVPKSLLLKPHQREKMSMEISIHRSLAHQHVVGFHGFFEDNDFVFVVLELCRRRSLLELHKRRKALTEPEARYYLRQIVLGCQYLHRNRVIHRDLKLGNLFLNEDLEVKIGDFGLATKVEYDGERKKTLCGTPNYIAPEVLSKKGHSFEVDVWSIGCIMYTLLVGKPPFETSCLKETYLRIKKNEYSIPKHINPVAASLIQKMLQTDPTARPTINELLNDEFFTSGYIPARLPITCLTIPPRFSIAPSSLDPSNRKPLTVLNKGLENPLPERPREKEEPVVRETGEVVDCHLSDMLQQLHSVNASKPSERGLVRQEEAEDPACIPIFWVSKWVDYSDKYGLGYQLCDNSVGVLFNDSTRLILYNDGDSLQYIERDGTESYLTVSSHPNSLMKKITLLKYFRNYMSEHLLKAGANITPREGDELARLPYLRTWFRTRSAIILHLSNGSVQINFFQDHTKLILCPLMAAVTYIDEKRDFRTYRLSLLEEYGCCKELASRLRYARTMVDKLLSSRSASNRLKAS
Sequence of AKT2 (human), P31751 [S474D] (P31751 whole entry S474D, looked up): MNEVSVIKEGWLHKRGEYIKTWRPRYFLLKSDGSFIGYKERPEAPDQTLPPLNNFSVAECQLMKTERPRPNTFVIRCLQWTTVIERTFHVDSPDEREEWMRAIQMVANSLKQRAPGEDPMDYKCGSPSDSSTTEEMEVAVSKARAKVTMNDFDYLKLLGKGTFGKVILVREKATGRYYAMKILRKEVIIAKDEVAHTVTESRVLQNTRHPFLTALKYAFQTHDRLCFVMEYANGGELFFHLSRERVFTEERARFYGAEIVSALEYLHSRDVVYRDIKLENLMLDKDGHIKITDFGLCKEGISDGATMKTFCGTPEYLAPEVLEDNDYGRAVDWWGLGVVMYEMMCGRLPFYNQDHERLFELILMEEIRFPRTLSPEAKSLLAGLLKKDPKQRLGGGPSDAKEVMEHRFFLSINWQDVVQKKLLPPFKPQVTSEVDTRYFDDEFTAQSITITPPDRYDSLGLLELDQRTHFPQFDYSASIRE
Sequence of CSNK1D (human) (P48730 whole entry, looked up): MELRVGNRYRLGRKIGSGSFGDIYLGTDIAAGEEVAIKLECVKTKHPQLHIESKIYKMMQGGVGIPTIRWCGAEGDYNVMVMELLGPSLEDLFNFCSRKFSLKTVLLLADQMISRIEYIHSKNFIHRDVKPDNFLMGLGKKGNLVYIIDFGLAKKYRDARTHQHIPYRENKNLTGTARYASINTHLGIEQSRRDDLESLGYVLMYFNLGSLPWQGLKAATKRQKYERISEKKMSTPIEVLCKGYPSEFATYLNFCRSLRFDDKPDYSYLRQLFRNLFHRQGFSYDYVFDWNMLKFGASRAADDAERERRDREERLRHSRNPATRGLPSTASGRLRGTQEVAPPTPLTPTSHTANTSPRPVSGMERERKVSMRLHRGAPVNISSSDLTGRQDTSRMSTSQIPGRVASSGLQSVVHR
Sequence of MAPK15 (human) (Q8TD08 whole entry, looked up): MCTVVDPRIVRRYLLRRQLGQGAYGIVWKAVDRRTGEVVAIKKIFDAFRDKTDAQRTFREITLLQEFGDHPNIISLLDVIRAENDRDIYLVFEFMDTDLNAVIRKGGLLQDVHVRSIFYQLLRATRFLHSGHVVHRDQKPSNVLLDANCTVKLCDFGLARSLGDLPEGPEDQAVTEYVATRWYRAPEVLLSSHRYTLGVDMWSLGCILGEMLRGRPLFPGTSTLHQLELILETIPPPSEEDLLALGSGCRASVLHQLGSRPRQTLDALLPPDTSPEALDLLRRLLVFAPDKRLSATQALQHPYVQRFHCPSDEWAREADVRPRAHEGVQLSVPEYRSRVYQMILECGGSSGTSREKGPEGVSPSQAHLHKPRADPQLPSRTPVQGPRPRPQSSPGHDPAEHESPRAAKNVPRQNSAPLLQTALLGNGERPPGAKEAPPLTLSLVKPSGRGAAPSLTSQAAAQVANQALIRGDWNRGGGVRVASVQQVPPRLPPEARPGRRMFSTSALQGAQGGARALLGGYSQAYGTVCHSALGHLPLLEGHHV
Sequence of CHEK2 (human) (O96017 whole entry, looked up): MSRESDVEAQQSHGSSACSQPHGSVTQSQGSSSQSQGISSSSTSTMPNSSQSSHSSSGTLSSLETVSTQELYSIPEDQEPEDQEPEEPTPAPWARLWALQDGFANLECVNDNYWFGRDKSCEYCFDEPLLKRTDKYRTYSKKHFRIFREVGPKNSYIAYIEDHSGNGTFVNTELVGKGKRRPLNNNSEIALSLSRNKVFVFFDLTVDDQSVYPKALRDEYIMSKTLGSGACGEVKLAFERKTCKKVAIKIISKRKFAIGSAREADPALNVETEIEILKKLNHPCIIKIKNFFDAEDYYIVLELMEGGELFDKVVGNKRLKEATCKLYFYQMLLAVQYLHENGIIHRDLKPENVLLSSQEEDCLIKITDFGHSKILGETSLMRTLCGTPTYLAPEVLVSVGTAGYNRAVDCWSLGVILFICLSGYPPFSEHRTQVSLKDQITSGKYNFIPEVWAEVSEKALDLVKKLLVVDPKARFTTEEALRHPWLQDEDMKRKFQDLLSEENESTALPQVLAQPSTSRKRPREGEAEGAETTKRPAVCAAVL
Sequence of MKNK2 (human) (Q9HBH9 whole entry, looked up): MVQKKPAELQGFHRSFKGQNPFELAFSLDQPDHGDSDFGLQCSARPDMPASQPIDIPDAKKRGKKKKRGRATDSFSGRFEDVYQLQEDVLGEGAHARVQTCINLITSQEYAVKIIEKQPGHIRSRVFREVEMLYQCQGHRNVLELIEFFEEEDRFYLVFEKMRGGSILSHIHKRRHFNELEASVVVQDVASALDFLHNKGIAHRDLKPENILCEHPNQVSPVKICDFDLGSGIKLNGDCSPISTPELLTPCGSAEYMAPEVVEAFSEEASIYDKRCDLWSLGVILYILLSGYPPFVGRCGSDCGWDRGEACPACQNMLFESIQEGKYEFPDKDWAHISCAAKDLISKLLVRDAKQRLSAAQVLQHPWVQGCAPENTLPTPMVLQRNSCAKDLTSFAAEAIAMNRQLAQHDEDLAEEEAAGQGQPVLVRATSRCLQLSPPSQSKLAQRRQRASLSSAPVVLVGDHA

`NC(=O)Nc1ccc2c(c1)/C(=C/c1cc(-c3cccnc3)c[nH]1)C(=O)N2` was tested, and the residual activity (SRC (human); compound 0.1 µM) was 41%, the residual activity (SRC (human); compound 1.0 µM) was 7% and the residual activity (SRC (human); compound 10.0 µM) was 1%. It also gave a residual activity (CSNK1D (human); compound 0.1 µM) of 90%, a residual activity (CSNK1D (human); compound 1.0 µM) of 59% and a residual activity (CSNK1D (human); compound 10.0 µM) of 20%. The residual activity (SYK (human); compound 1.0 µM) was 40%, the residual activity (SYK (human); compound 10.0 µM) was 7% and the residual activity (IKBKB (human); compound 0.1 µM) was 75%. For the same compound, the residual activity (IKBKB (human); compound 10.0 µM) was 26%, the residual activity (RPS6KA3 KD1 KD2 (human); compound 0.1 µM) was 38% and the residual activity (RPS6KA3 KD1 KD2 (human); compound 1.0 µM) was 32%. For the same compound, the residual activity (RPS6KA3 KD1 KD2 (human); compound 10.0 µM) was 22%, the residual activity ([1]; compound 0.1 µM) was 88% and the residual activity ([1]; compound 1.0 µM) was 77%. The residual activity ([1]; compound 10.0 µM) was 36%, the residual activity (RPS6KA5 KD1 KD2 (human); compound 0.1 µM) was 98% and the residual activity (RPS6KA5 KD1 KD2 (human); compound 1.0 µM) was 73%. For the same compound, the residual activity (RPS6KA5 KD1 KD2 (human); compound 10.0 µM) was 30%, the residual activity (RPS6KA1 KD1 KD2 (human); compound 0.1 µM) was 24% and the residual activity (RPS6KA1 KD1 KD2 (human); compound 1.0 µM) was 10%. It also gave a residual activity (RPS6KA1 KD1 KD2 (human); compound 10.0 µM) of 5%, a residual activity (NEK2 (human); compound 0.1 µM) of 100% and a residual activity (NEK2 (human); compound 1.0 µM) of 75%. It also gave a residual activity (NEK2 (human); compound 10.0 µM) of 28%, a residual activity (PRKAA1 or PRKAA2 (rat); compound 0.1 µM) of 5% and a residual activity (PRKAA1 or PRKAA2 (rat); compound 1.0 µM) of 6%. For the same compound, the residual activity (PRKAA1 or PRKAA2 (rat); compound 10.0 µM) was 4%, the residual activity (CHEK2 (human); compound 0.1 µM) was -1% and the residual activity (CHEK2 (human); compound 1.0 µM) was -5%. It also gave a residual activity (CHEK2 (human); compound 10.0 µM) of 1%, a residual activity (CDK2 CCNA2 (human); compound 0.1 µM) of 63% and a residual activity (CDK2 CCNA2 (human); compound 1.0 µM) of 14%. For the same compound, the residual activity (CDK2 CCNA2 (human); compound 10.0 µM) was 6%, the residual activity (MAPK14 (human); compound 0.1 µM) was 81% and the residual activity (MAPK14 (human); compound 1.0 µM) was 80%. It also gave a residual activity (MAPK14 (human); compound 10.0 µM) of 45%, a residual activity (PIM2 (human); compound 0.1 µM) of 76% and a residual activity (PIM2 (human); compound 1.0 µM) of 34%. It also gave a residual activity (PIM2 (human); compound 10.0 µM) of 8%, a residual activity (PLK1 (human); compound 0.1 µM) of 86% and a residual activity (PLK1 (human); compound 1.0 µM) of 42%. The residual activity (PLK1 (human); compound 10.0 µM) was 18%, the residual activity (PAK7 (human); compound 0.1 µM) was 75% and the residual activity (PAK7 (human); compound 1.0 µM) was 43%. For the same compound, the residual activity (PAK7 (human); compound 10.0 µM) was 8%, the residual activity (FLT1 (human); compound 0.1 µM) was 7% and the residual activity (FLT1 (human); compound 1.0 µM) was 3%. For the same compound, the residual activity (FLT1 (human); compound 10.0 µM) was 1%, the residual activity (MKNK2 (human); compound 0.1 µM) was 75% and the residual activity (MKNK2 (human); compound 1.0 µM) was 46%. The residual activity (MKNK2 (human); compound 10.0 µM) was 16%, the residual activity (IKBKE (human); compound 0.1 µM) was 51% and the residual activity (IKBKE (human); compound 1.0 µM) was 12%. For the same compound, the residual activity (IKBKE (human); compound 10.0 µM) was 11%, the residual activity (NEK6 (human); compound 0.1 µM) was 92% and the residual activity (NEK6 (human); compound 1.0 µM) was 76%. For the same compound, the residual activity (NEK6 (human); compound 10.0 µM) was 38%, the residual activity (MAPK1 (human); compound 0.1 µM) was 81% and the residual activity (MAPK1 (human); compound 1.0 µM) was 41%. For the same compound, the residual activity (MAPK1 (human); compound 10.0 µM) was 16%, the residual activity (INSRR (human); compound 0.1 µM) was 35% and the residual activity (INSRR (human); compound 1.0 µM) was 16%. For the same compound, the residual activity (INSRR (human); compound 10.0 µM) was 5%, the residual activity (MAPK3 (human); compound 0.1 µM) was 71% and the residual activity (MAPK3 (human); compound 10.0 µM) was 4%. The residual activity (MAP2K1 (human); compound 0.1 µM) was 8%, the residual activity (MAP2K1 (human); compound 1.0 µM) was 1% and the residual activity (MAP2K1 (human); compound 10.0 µM) was 2%. It also gave a residual activity (BTK (human); compound 0.1 µM) of 86%, a residual activity (BTK (human); compound 1.0 µM) of 29% and a residual activity (BTK (human); compound 10.0 µM) of 9%. For the same compound, the residual activity (PRKACA (human); compound 0.1 µM) was 78%, the residual activity (PRKACA (human); compound 1.0 µM) was 66% and the residual activity (PRKACA (human); compound 10.0 µM) was 32%. For the same compound, the residual activity (MAPK15 (human); compound 0.1 µM) was 5%, the residual activity (MAPK15 (human); compound 1.0 µM) was 2% and the residual activity (MAPK15 (human); compound 10.0 µM) was 1%. It also gave a residual activity ([2]; compound 0.1 µM) of 76%, a residual activity ([2]; compound 1.0 µM) of 32% and a residual activity ([2]; compound 10.0 µM) of 12%. It also gave a residual activity (CSK (human); compound 0.1 µM) of 98%, a residual activity (CSK (human); compound 1.0 µM) of 69% and a residual activity (CSK (human); compound 10.0 µM) of 42%.
